Measured values as given in patent US20080171716A1, “NUCLEIC ACID MODULATION OF TOLL-LIKE RECEPTOR-MEDIATED IMMUNE STIMULATION” (Protiva Biotherapeutics, Inc., priority 2006, published 2008).
m = 2'-O-methyl; r = 2'-OH (RNA)

Molecular target: T1, TLR9 (Homo sapiens, UniProt Q9NR96)
T1 construct: these experiments were repeated in human PBMC cultures; endogenous in cells; host or cells: primary human PBMCs
T1 sequence (Q9NR96 26-1032): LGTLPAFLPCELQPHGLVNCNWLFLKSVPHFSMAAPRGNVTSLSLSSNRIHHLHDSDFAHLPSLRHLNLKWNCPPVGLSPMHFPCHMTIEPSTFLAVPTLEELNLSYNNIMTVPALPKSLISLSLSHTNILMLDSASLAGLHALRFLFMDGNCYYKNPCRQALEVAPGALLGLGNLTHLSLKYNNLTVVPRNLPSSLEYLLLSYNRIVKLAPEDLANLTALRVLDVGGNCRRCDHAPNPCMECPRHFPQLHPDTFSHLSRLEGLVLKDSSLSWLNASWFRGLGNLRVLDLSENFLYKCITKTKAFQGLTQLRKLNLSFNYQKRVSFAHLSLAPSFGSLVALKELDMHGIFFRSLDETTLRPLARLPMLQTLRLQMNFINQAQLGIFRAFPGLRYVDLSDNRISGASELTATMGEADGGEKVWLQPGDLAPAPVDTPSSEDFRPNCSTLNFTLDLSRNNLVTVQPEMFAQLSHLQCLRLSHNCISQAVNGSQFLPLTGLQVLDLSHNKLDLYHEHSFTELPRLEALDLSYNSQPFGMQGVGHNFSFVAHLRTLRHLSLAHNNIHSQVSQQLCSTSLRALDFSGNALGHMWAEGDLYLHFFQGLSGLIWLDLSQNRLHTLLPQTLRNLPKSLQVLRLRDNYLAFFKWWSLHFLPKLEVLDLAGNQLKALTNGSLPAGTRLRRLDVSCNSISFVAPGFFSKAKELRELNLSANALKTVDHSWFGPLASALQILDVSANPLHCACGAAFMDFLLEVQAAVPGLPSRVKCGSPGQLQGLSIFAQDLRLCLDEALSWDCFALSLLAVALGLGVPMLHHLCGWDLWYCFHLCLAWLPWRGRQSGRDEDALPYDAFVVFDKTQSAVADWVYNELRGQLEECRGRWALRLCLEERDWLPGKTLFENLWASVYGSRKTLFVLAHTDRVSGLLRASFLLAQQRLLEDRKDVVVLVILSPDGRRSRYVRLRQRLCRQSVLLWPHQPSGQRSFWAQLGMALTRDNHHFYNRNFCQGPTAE
Assay: CpG ODN (TLR9 agonist)-induced cytokine production in human PBMCs
Assay type: cell-based
Procedure: All RNA molecules used in this study were heated at 90° C. for 3 min. and then placed at 37° C. for 60 min. Non-denaturing PAGE analysis on a 20% polyacrylamide gel was performed to confirm that ssRNA molecules were intact and that no duplexes had formed upon heating. The RNA molecules were encapsulated in a SNALP formulation comprising PEG-cDMA:DLinDMA:cholesterol:DSPC in a 2:40:48:10 mol % ratio (2:40 SNALP), prepared using a syringe press process.
Fresh human peripheral blood mononuclear cells (PBMCs) were isolated and seeded at about 3×10^5 cells/well in a total volume of 180 μl. Next, 20 μl of the appropriate SNALP diluted in PBS or 10 μl of naked TLR agonist were added to the PBMCs. For time course experiments, PBMCs were pretreated with UmodS ssRNA or a control and the appropriate naked TLR agonist was added at 0, 0.5, or 2 hours after pretreatment. When the SNALP and naked TLR agonist were added separately, the SNALP was added first followed by the naked TLR agonist. At t=24 hr., the cell supernatant was harvested and IFN-α and/or IL-6 levels were determined using ELISA.
Lipid Encapsulation of RNA and ODN. RNA or ODN were encapsulated in liposomes by a process of spontaneous vesicle formation as described in Judge et al., supra, and Jeffs et al., Pharm. […]
Cytokine ELISA. All cytokines were quantified using sandwich ELISA kits according to the manufacturer's instructions. […]

Luc UmodS: Luc sense strand ssRNA with 2′OMe at uridines: GAmUmUAmUGmUCCGGmUmUAmUGmUAUU (sense GAUUAUGUCCGGUUAUGUAUU; sugars from the 5' end rrmmrmrmrrrrmmrmrmrrr, backbone not given here)
IL-6 levels induced by naked ODN2006 (TLR9 agonist, phosphorothioate CpG Type B) (human PBMCs pretreated with SNALP-encapsulated ssRNA): no reduction | level of IFN-α induced by naked ODN2216 (TLR9 agonist, phosphorothioate CpG Type A) (human PBMCs, SNALP-encapsulated ssRNA plus naked ODN): increased
